For one series, the system named is human adipocytes. As to the kind of experiment: production of cAMP in human adipocytes (lipolysis activation). Type of series: cell-based. The source says: The aim of this study is to study the effect of 9-HODE on the production of cAMP (cyclic adenosine monophosphate) which is a lipolysis activator, in human adipocytes. The effect of 9-HODE is studied relative to that of adrenaline and caffeine which are two molecules that are known for their lipolysis-stimulating effects.

The nature of series [1]: skin penetration in vitro on human skin with Franz cells. In kind it is in vitro ADME. The method, then: A study of skin penetration is carried out in vitro on human skin with Franz cells. These cells comprise a surface area of human skin of 1.76 cm^2 on which is placed 800 μg of 9-HODE. After 6 hours of contact, an assay of the 9-HODE is carried out by gas chromatography at the surface of the human skin sample, in the epidermis, in the dermis and in the receiving phase.

Where [2] appears, read: 9-HODE 10^−4 M, human adipocytes.
Where [3] appears, read: 800 μg on 1.76 cm^2 human skin, after 6 hours of contact.

The values below come from patent US6348609B1, “Method for obtaining an oil that is rich in hydroxyoctadecadienoic fatty acids (HODE) or the esters thereof from a mixture containing linoleic acid or the esters thereof” (Laboratoires Arkopharma, priority 1999, dated 2002).

For the compound `CCCCCC=CC=CC(O)CCCCCCCC(=O)O` (centres unmarked) [9-HODE, 9-hydroxy-10,12-octadecadienoic acid], the “concentration of cAMP, times greater than that obtained with caffeine” value in the series with human adipocytes (9-HODE 10^−3 M, human adipocytes) worked out at 10 times. Besides, in the series on human adipocytes (setting [2]), the “increase in cAMP relative to adrenaline” value is “greater than that obtained, irrespective of the concentration, by adrenaline” and the “increase in cAMP relative to caffeine” value is “equivalent to that of caffeine 10^−3 M”. Moreover, the “concentration of cAMP” value in the series on human adipocytes (9-HODE concentration of 10^−3 M, human adipocytes) is on record as 7.940 femtomol of cAMP/million adipocytes. The “conclusion on lipolysis activation in vitro” value in the series with human adipocytes (in vitro, by stimulating production of cAMP by adipocytes) is on record as “powerful lipolysis activator”. Further, in series [1] (setting [3]), the “9-HODE assayed at the surface of the skin” value was 33%, the “9-HODE assayed in the dermis” value is 32%, the “9-HODE assayed in the epidermis” value turned out to be 11% and the “9-HODE assayed in the receiving phase” value is reported as 24%. The skin-penetrating power entry in series [1] (human skin, Franz cells) is “high skin-penetrating power”.

With `Cn1c(=O)c2c(ncn2C)n(C)c1=O` [caffeine, reference compound], in the series on human adipocytes (caffeine comparator, concentration not given, human adipocytes), the “concentration of cAMP” value is recorded as 799 femtomol of cAMP/million adipocytes.
